Laboratory results taken from paper PMC5708362, “A systematic analysis of atomic protein–ligand interactions in the PDB” (MedChemComm, 2017).

Tests used:
[1] = test system: human EGFR; parameters: method as in PMID 23611691; details: human EGFR inhibitors; cited from earlier work
[2] = test system: human EGFR; experiment: EGFR inhibition (salt bridge pair); format: biochemical; details: 9 (carbon in place of terminal N,N-dimethylamino nitrogen) vs 10
[3] = test system: human sEH; parameters: method as in PMID 19746975; details: human sEH inhibitors; cited from earlier work
[4] = test system: thrombin; parameters: method as in PMID 20148533; details: thrombin inhibitors; cited from earlier work
[5] = test system: human factor Xa; experiment: factor Xa inhibition, ammonium methylation series (cation–π); format: biochemical; details: trimethylated ammonium 17 vs tert-butyl analog 15

Compound | IC50 [1] [µM] | IC50 [3] [µM] | further results
CC(C)CCCC(=O)Nc1cccc(-c2c(-c3ccccc3)oc3ncnc(N[C@H](CO)c4ccccc4)c23)c1 [compound 9] | > 25 |  | potency reduced by fold [2]: more than 800 fold
CN(C)CCCC(=O)Nc1cccc(-c2c(-c3ccccc3)oc3ncnc(N[C@H](CO)c4ccccc4)c23)c1 [compound 10] | 0.029 |  | 
O=C(NCCCc1ccccc1)c1cccnc1 [compound 5] |  | 0.7 | 
O=C(NCc1cccc(Cl)c1)[C@@H]1CCCN1C(=O)CCc1ccccc1 [compound 3] |  |  | IC50 [4]: 94.3 µM
C[N+](C)(C)CCCN1C(=O)[C@@H]2[C@H](C1=O)[C@H](c1cc(-c3ccc(Cl)s3)on1)N1CCC[C@@H]21 (racemic) [(±)-17] |  |  | fold increase in potency [5]: 60 fold
